Reference: paper PMC10979003, “Development and crystal structures of a potent second-generation dual degrader of BCL-2 and BCL-xL” (Nature Communications, 2024)

Assays:
[1] = molecular target: T1, VCB/PROTAC/BCL-xL ternary complex (Homo sapiens, UniProt P40337+Q07817); test: AlphaLISA ternary complex assay VCB/PROTAC/BCL-xL; assay type: binding; settings: cell-free AlphaLISA
T1 construct: BCL-xL (aa 2-212) and BCL-2 (aa 1-207) transformed cells were grown in LB broth; SMT3 (N); GST (on the VCB complex); made in house; host or cells: E. coli BL21 (DE3) codon plus (stated for the BCL-xL construct)
T1 sequence (Q15369 17-112): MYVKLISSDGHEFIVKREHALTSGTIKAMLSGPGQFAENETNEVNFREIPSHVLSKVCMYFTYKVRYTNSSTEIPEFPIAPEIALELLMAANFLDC
T1 sequence (Q07817 2-212): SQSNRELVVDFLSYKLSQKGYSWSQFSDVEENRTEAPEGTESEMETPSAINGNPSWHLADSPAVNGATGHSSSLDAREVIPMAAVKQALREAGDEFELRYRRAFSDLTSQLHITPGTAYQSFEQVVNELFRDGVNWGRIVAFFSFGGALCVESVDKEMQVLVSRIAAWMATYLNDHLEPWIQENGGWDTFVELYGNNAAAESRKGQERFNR
T1 sequence (Q15370 whole entry, further chain, the tested form may be a part): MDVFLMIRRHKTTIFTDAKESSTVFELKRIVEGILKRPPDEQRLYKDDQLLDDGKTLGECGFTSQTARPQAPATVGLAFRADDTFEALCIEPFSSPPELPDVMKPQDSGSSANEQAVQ
T1 sequence (P40337 54-213): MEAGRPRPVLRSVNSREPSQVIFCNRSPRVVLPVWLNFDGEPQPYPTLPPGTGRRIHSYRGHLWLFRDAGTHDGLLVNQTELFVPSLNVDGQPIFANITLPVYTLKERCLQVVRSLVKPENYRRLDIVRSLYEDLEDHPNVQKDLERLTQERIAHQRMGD
Experimental: (§1) Assays were performed at room temperature. All reagents were diluted in assay buffer of 25 mM HEPES, pH 7.5, 150 mM NaCl, 0.1% BSA, and 0.005% tween 20. To a 96-well PCR plate (VWR, Cat. No. 82006-636) were added 10 μL self-made 6×His tagged BCL-xL (100 nM) or BCL-2 (150 nM), 10 μL series diluted compounds solution (4× dilution) and 10 μL of self-made GST-VCB (100 nM). After incubating at room temperature for 15 min, 5 µL of alpha glutathione-donor beads (160 μg/mL, PerkinElmer, Cat. No. 6765300) and 5 µL of anti-6×His acceptor beads (160 μg/mL, PerkinElmer, Cat. No. AL128M) to each well and incubated for additional 45 min in the dark before being transferred to two adjacent wells (17 µL each) of 384-well white OptiPlate (PerkinElmer, Cat. No. 6008280). The luminescence signal was detected on a Biotek’s Synergy Neo2 multimode plate reader installed with an AphaScreen filter cube. Intensity values were plotted in Graphpad Prism (9.2.0) with PROTAC concentration values represented on a log10 scale.

HiBiT-BCL-2/HaloTag-VHL = molecular target: T2, HiBiT-BCL-2/HaloTag-VHL (Homo sapiens, UniProt P10415+P40337); test: NanoBRET ternary complex formation assay in 293T cells, HiBiT-BCL-2 and HaloTag-VHL; assay type: cell-based; settings: 4 h, MG132 pretreatment
T2 construct: full-length BCL-xL and BCL-2 were expressed in cells for the nanoBRET assay; host or cells: 293T
T2 sequence (P10415 whole entry): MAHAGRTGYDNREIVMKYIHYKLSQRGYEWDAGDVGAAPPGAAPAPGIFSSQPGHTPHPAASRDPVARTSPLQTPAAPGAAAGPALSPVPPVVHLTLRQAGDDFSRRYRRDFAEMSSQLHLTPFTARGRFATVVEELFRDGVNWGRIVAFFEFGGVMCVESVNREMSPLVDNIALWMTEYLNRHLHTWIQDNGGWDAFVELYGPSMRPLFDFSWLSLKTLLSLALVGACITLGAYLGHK
T2 sequence (P40337 whole entry): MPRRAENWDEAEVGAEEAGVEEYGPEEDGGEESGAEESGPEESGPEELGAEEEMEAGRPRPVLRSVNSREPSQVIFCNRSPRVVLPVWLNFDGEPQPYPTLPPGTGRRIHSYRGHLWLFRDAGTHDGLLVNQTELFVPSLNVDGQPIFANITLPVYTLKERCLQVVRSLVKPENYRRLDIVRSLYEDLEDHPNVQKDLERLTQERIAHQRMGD
T2 sequence (Q15370 whole entry, further chain): as the sequence (Q15370 whole entry, further chain, the tested form may be a part) above
T2 sequence (Q15369 whole entry, further chain): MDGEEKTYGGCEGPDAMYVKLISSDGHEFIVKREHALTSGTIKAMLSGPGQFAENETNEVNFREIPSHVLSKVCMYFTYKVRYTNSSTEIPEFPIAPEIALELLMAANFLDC
Experimental: Plasmids HaloTag-VHL (Cat. No. CS1679C155) and CMV HiBiT (Cat. No. CS1956B03) were purchased from Promega. HiBiT-BCL-xL and HiBiT-BCL-2 were constructed previously. 293T cells (8 × 10^5 cells/well in a 6-well plate) were transfected with Lipofectamine (Life Technologies) and 1 μg HaloTag-VHL, 20 ng HiBiT-BCL-xL and 20 ng LgBiT or 1 μg HaloTag-VHL, 20 ng HiBiT-BCL-2 and 20 ng LgBiT. After 48 h, 2 × 10^4 transfected cells were seeded into each well of white 96-well tissue culture plates in Gibco™ Opti-MEM™ I Reduced Serum Medium, No Phenol Red (Cat. No. 11-058-021, Fisher) containing 4% FBS with or without HaloTag NanoBRET 618 Ligand (Cat. No. PRN1662, Promega) and incubated overnight at 37 °C, 5% CO2. […] After treatment, NanoBRET Nano-Glo Substrate (cat. no. N1662, Promega) was added into the medium, and the contents were mixed by shaking the plate for 30 s before measuring donor and acceptor signals on Biotek plate reader. Dual-filtered luminescence was collected with a 450/50 nm bandpass filter (donor, NanoBiT-BCL-XL protein or NanoBiT-BCL-2 protein) and a 610-nm longpass filter (acceptor, HaloTag NanoBRET ligand) using an integration time of 0.5 s. mBRET ratios were calculated following the NanoBRET™ Nano-Glo® Detection System (Cat. No. N1662, Promega).

[2] = molecular target: T3, VCB/PROTAC/BCL-2 ternary complex (Homo sapiens, UniProt P10415+P40337); test: AlphaLISA ternary complex assay VCB/PROTAC/BCL-2; assay type: binding; settings: cell-free AlphaLISA
T3 construct: BCL-xL (aa 2-212) and BCL-2 (aa 1-207) transformed cells were grown in LB broth; GST (on the VCB complex); made in house; host or cells: E. coli BL21 (DE3) codon plus (stated for the BCL-2 construct)
T3 sequence (Q15370 whole entry, the tested form may be a part): as the sequence (Q15370 whole entry, further chain, the tested form may be a part) above
T3 sequence (Q15369 17-112, further chain): as the sequence (Q15369 17-112) above
T3 sequence (P40337 54-213): as the sequence (P40337 54-213) above
T3 sequence (P10415 1-207): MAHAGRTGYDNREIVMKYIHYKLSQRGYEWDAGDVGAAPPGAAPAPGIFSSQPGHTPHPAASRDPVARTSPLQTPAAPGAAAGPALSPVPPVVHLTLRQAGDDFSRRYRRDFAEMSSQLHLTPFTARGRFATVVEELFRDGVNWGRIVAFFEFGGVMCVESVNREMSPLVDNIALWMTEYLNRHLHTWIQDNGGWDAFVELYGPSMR
Experimental: as §1

BCL-2 E114A Q118A = molecular target: T4, BCL-2 E114A Q118A (Homo sapiens, UniProt P10415, E114A/Q118A); test: AlphaScreen binary binding, BCL-2 E114A Q118A; settings: mean ± s.d., n=3
T4 construct: BCL-xL (aa 2-212) and BCL-2 (aa 1-207) transformed cells were grown in LB broth; made in house; host or cells: E. coli BL21 (DE3) codon plus
T4 sequence (P10415 1-207 E114A/Q118A): as the sequence (P10415 1-207) above, with E114A, Q118A counted along it
Experimental: (§2) To test the binary/ternary binding affinities of compounds to BCL-2/BCL-xL, AlphaScreen displacement binding assay was performed to test the capabilities of testing compounds to displace a Biotin-tagged Bim (Biotin-[…]) or Bad (Biotin-[…]) from BCL-2 or BCL-xL for BCL-2 and BCL-xL binding affinities, respectively. All reagents were diluted in assay buffer of 25 mM HEPES, pH 7.5, 150 mM NaCl, 0.1% BSA, and 0.005% tween 20 prior incubation. To a 96-well PCR plate (VWR, Cat. No. 82006-636) was added 10 μL Biotin-tagged Bim (15 nM for WT or 50 nM for mutants) or Bad (15 nM for WT or 50 nM for mutants), 10 μL series diluted compounds solution (2 or 3 or 4× dilution), and 10 μL self-made 6×His tagged BCL-2 WT or mutants (25 nM WT or 50 nM mutants) or 10 μL self-made BCL-xL WT and mutants (10 nM WT or 50 nM mutants). […] The luminescence signal was detected on a Biotek’s Synergy Neo2 multimode plate reader installed with an AphaScreen filter cube. The Ki values of each compounds were calculated by fitting data into the “Binding-competitive, One site-Fit Ki” function in GraphPad Prism (9.2.0) based on concentrations of Biotin–peptide used and experimentally determined Kd values of each 6×His protein &&&and Biotin–Peptide pair.

BCL-2 R110A = molecular target: T5, BCL-2 R110A (Homo sapiens, UniProt P10415, R110A); test: AlphaScreen binary binding, BCL-2 R110A; settings: mean ± s.d., n=3
T5 construct: BCL-xL (aa 2-212) and BCL-2 (aa 1-207) transformed cells were grown in LB broth; made in house; host or cells: E. coli BL21 (DE3) codon plus
T5 sequence (P10415 1-207 R110A): as the sequence (P10415 1-207) above, with R110A counted along it
Experimental: as §2

BCL-xL R103A/D107A = molecular target: T6, BCL-xL R103A/D107A (Homo sapiens, UniProt Q07817, D107A/R103A); test: AlphaScreen binary binding, BCL-xL R103A/D107A; settings: mean ± s.d., n=3
T6 construct: BCL-xL (aa 2-212) and BCL-2 (aa 1-207) transformed cells were grown in LB broth; SMT3 (N); made in house; host or cells: E. coli BL21 (DE3) codon plus
T6 sequence (Q07817 2-212 R103A/D107A): as the sequence (Q07817 2-212) above, with R102A, D106A counted along it
Experimental: as §2

SMILES	Ternary complex formation with BCL-xL (comparison with 753b) [1]	Cellular ternary complex formation with BCL-2 (comparison) (HiBiT-BCL-2/HaloTag-VHL)	Ternary complex formation with BCL-2 (comparison with 753b) [2]	Ki (BCL-2 E114A Q118A)	Ki (BCL-2 R110A)	Ki (BCL-xL R103A/D107A)
Cc1ncsc1-c1ccc([C@H](C)NC(=O)[C@@H]2C[C@@H](O)CN2C(=O)[C@@H](NC(=O)CN2CCN(CC(=O)N3CCN(C[C@]4(C)CCC(c5ccc(Cl)cc5)=C(CN5CCN(c6ccc(C(=O)NS(=O)(=O)c7ccc(N[C@H](CCN8C[C@@H]9C[C@H]8CO9)CSc8ccccc8)c(S(=O)(=O)C(F)(F)F)c7)cc6)CC5)C4)CC3)CC2)C(C)(C)C)cc1 [WH244]	tighter complex	modestly better than 753b	tighter complex	9.6 ± 0.7 nM	8 ± 1.2 nM	
Cc1ncsc1-c1ccc(C(C)NC(=O)C2CC(O)CN2C(=O)C(NC(=O)CCCCCCC(=O)N2CCN(CC3(C)CCC(c4ccc(Cl)cc4)=C(CN4CCN(c5ccc(C(=O)NS(=O)(=O)c6ccc(NC(CCN7CCOCC7)CSc7ccccc7)c(S(=O)(=O)C(F)(F)F)c6)cc5)CC4)C3)CC2)C(C)(C)C)cc1 (stereo not drawn) [753b]						36.7 ± 3 nM
